Patent US12398147B2, “Macrocyclic spiropyrrolidine derived antiviral agents” (Enanta Pharmaceuticals, Inc., priority 2021, dated 2025)
Read-outs that look alike come from different tables or passages of the source.

Legend:
[1] = system: 229E human corona virus (hCoV); assay: 229E Cellular Assay (MRC5), live virus assay, ATPlite; assay type: cell-based, hCoV-229E; conditions: read-out: EC50 (229E)
SARS-CoV-2 3CL-protease = SARS-CoV-2 3CL-protease (Severe acute respiratory syndrome coronavirus 2 (2019-nCoV) (SARS-CoV-2), UniProt P0DTD1); assay: biochemical
in vitro = conditions: African green monkey
SARS-CoV-2 USA-WA1/2020 = assay: SARS-CoV-2 Cellular Assay (Vero 76), inhibition of CPE, neutral red; assay type: cell-based; conditions: Severe acute respiratory syndrome coronavirus 2, 144 h; Vero 76 cells infected with SARS-CoV-2 USA-WA1/2020, day 6, neutral red CPE
[2] = Human coronavirus 229E, MRC5, 144 h, MRC-5 cells, hCoV-229E MOI 0.05, 6 days, ATPlite
[3] = recombinant SARS-CoV-2 3CL-protease 10 nM, 30 min preincubation, read-out: FRET IC50

CC(C)C[C@H]1C(=O)N2C[C@]3(C[C@H]2C#N)C(=O)Nc2ccc(cc23)CCCCCN1C(=O)c1nnc(-c2ccccc2)[nH]1 [Example 13]
EC50 [1, 2]: 100 to 1000 nM
IC50 (SARS-CoV-2 3CL-protease): 100 to 1000 nM

CC(C)C[C@H]1C(=O)N2C[C@]3(C[C@H]2C#N)C(=O)Nc2ccc(cc23)CCCCCN1C(=O)c1cn(-c2ccccc2)nn1 [Example 7]
CC50 (in vitro): 1000 to 50000 nM
EC50 (SARS-CoV-2 USA-WA1/2020): < 1000 nM
EC50 [1, 2]: < 100 nM
IC50 (SARS-CoV-2 3CL-protease; [3]): < 100 nM

CC(C)C[C@H]1C(=O)N2C[C@]3(C[C@H]2C#N)C(=O)Nc2ccc(cc23)C=CCCCN1C(=O)OCc1ccccc1 [Example 1]
EC50 ([1]; MRC-5 cells, hCoV-229E MOI 0.05, 6 days, ATPlite): 100 to 1000 nM
IC50 (SARS-CoV-2 3CL-protease; [3]): < 100 nM

N#C[C@@H]1C[C@]23CN1C(=O)[C@H](Cc1ccccc1)N(C(=O)c1cc4c(F)cc(F)cc4[nH]1)CCCCCc1ccc(c2c1)NC3=O [Example 9]
CC50 (in vitro): 1000 to 50000 nM
EC50 (SARS-CoV-2 USA-WA1/2020): < 1000 nM
EC50 [1, 2]: < 100 nM
IC50 (SARS-CoV-2 3CL-protease; [3]): < 100 nM

CC(C)C[C@H]1C(=O)N2C[C@]3(C[C@H]2C#N)C(=O)Nc2ccc(cc23)CCCCCN1C(=O)c1cnn(-c2ccc(F)cc2F)c1 [Example 23]
EC50 [1, 2]: < 100 nM
IC50 (SARS-CoV-2 3CL-protease; [3]): < 100 nM

CC(C)C[C@H]1C(=O)N2C[C@]3(C[C@H]2C#N)C(=O)Nc2ccc(cc23)OCCCCN1C(=O)c1cc2c(F)cc(F)cc2[nH]1 [Example 28]
EC50 [1, 2]: < 100 nM
IC50 (SARS-CoV-2 3CL-protease; [3]): < 100 nM

CC(C)C[C@H]1C(=O)N2C[C@]3(C[C@H]2C#N)C(=O)Nc2ccc(cc23)CCCCCN1C(=O)c1nnn(-c2ccccc2)n1 [Example 11]
EC50 [1, 2]: 100 to 1000 nM
IC50 (SARS-CoV-2 3CL-protease; [3]): < 100 nM

CC(C)C[C@H]1C(=O)N2C[C@]3(C[C@H]2C#N)C(=O)Nc2ccc(cc23)CCCCCN1C(=O)C(=O)NC1(c2ccc(F)cc2F)CC1 [Example 24]
EC50 [1, 2]: < 100 nM
IC50 (SARS-CoV-2 3CL-protease; [3]): < 100 nM

CC(C)C[C@H]1C(=O)N2C[C@]3(C[C@H]2C#N)C(=O)Nc2ccc(cc23)CCCCCN1C(=O)c1cnn(-c2ccc(Cl)cc2Cl)c1 [Example 25]
IC50 (SARS-CoV-2 3CL-protease; [3]): < 100 nM

CC(C)C[C@H]1C(=O)N2C[C@]3(C[C@H]2C#N)C(=O)Nc2ccc(cc23)CCCCCN1C(=O)c1cc2ccc(C(F)(F)F)cc2[nH]1 [Example 6]
EC50 [1, 2]: < 100 nM
IC50 (SARS-CoV-2 3CL-protease; [3]): 100 to 1000 nM

CC(C)C[C@H]1C(=O)N2C[C@]3(C[C@H]2C#N)C(=O)Nc2ccc(cc23)CCCCCN1C(=O)OCc1ccccc1 [Example 2]
EC50 [1, 2]: 100 to 1000 nM
IC50 (SARS-CoV-2 3CL-protease; [3]): < 100 nM

CC(C)(C)C[C@H]1C(=O)N2C[C@]3(C[C@H]2C#N)C(=O)Nc2ccc(cc23)CCCCCN1C(=O)c1cc2c(F)cc(F)cc2[nH]1 [Example 20]
EC50 [1, 2]: < 100 nM
IC50 (SARS-CoV-2 3CL-protease; [3]): < 100 nM

CC(C)C[C@H]1C(=O)N2C[C@]3(C[C@H]2C#N)C(=O)Nc2ccc(cc23)CCCCCN1C(=O)c1cnn(C(C)(C)C)c1 [Example 17]
EC50 [1, 2]: < 100 nM
IC50 (SARS-CoV-2 3CL-protease; [3]): < 100 nM

CC(C)C[C@H]1C(=O)N2C[C@]3(C[C@H]2C#N)C(=O)Nc2ccc(cc23)CCCCCN1C(=O)c1cnn(-c2ccccc2Cl)c1 [Example 22]
EC50 [1, 2]: < 100 nM
IC50 (SARS-CoV-2 3CL-protease; [3]): < 100 nM

CCCC[C@H]1C(=O)N2C[C@]3(C[C@H]2C#N)C(=O)Nc2ccc(cc23)CCCCCN1C(=O)c1cc2c(F)cc(F)cc2[nH]1 [Example 15]
EC50 [1, 2]: < 100 nM
IC50 (SARS-CoV-2 3CL-protease; [3]): < 100 nM

CC(C)C[C@H]1C(=O)N2C[C@]3(C[C@H]2C#N)C(=O)Nc2ccc(cc23)C(O)CCCCN1C(=O)c1cc2c(F)cc(F)cc2[nH]1 (stereo partly shown) [Example 26]
EC50 [1, 2]: < 100 nM
IC50 (SARS-CoV-2 3CL-protease; [3]): < 100 nM

CC(C)C[C@H]1C(=O)N2C[C@]3(C[C@H]2C#N)C(=O)Nc2ccc(cc23)CCCCCN1C(=O)c1cn(C2CCC2)nn1 [Example 12]
EC50 [1, 2]: < 100 nM
IC50 (SARS-CoV-2 3CL-protease; [3]): < 100 nM

CC(C)C[C@H]1C(=O)N2C[C@]3(C[C@H]2C#N)C(=O)Nc2ccc(cc23)CCCCCN1C(=O)c1cc2c(F)cc(F)cc2[nH]1 [Example 4]
CC50 (in vitro): 1000 to 50000 nM
EC50 (SARS-CoV-2 USA-WA1/2020): < 1000 nM
EC50 [1, 2]: < 100 nM
IC50 (SARS-CoV-2 3CL-protease; [3]): < 100 nM

CC(C)C[C@H]1C(=O)N2C[C@]3(C[C@H]2C#N)C(=O)Nc2ccc(cc23)/C=C\CCN1C(=O)OCc1ccccc1 [Example 3]
EC50 ([1]; Human coronavirus 229E, MRC5, 144 h): 100 to 1000 nM
IC50 (SARS-CoV-2 3CL-protease; [3]): < 100 nM

CC(C)C[C@H]1C(=O)N2C[C@]3(C[C@H]2C#N)C(=O)Nc2ccc(cc23)CCCCCCN1C(=O)c1cc2c(F)cc(F)cc2[nH]1 [Example 8]
EC50 [1, 2]: 100 to 1000 nM
IC50 (SARS-CoV-2 3CL-protease; [3]): 100 to 1000 nM

CC(C)C[C@H]1C(=O)N2C[C@]3(C[C@H]2C#N)C(=O)Nc2ccc(cc23)C(=O)CCCCN1C(=O)c1cc2c(F)cc(F)cc2[nH]1 [Example 27]
EC50 [1, 2]: < 100 nM
IC50 (SARS-CoV-2 3CL-protease; [3]): < 100 nM

CC(C)C[C@H]1C(=O)N2C[C@]3(C[C@H]2C#N)C(=O)Nc2ccc(cc23)CCCCCN1C(=O)c1cn(C2CC2)nn1 [Example 14]
CC50 (in vitro): 1000 to 50000 nM
EC50 (SARS-CoV-2 USA-WA1/2020): < 1000 nM
EC50 [1, 2]: < 100 nM
IC50 (SARS-CoV-2 3CL-protease; [3]): < 100 nM

CC(C)C[C@H]1C(=O)N2C[C@]3(C[C@H]2C#N)C(=O)Nc2ccc(cc23)CCCCCN1C(=O)c1cc2c(F)cc(F)c(F)c2[nH]1 [Example 5]
CC50 (in vitro): 1000 to 50000 nM
EC50 (SARS-CoV-2 USA-WA1/2020): < 1000 nM
EC50 [1, 2]: < 100 nM
IC50 (SARS-CoV-2 3CL-protease; [3]): < 100 nM

N#C[C@@H]1C[C@]23CN1C(=O)[C@H](Cc1ccccc1)N(C(=O)c1cn(-c4ccc(F)cc4)nn1)CCCCCc1ccc(c2c1)NC3=O [Example 10]
CC50 (in vitro): 1000 to 50000 nM
EC50 (SARS-CoV-2 USA-WA1/2020): < 1000 nM
IC50 (SARS-CoV-2 3CL-protease; [3]): < 100 nM

CCCC[C@H]1C(=O)N2C[C@]3(C[C@H]2C#N)C(=O)Nc2ccc(cc23)CCCCCN1C(=O)c1cc2c(F)cc(F)c(F)c2[nH]1 [Example 19]
EC50 [1, 2]: < 100 nM
IC50 (SARS-CoV-2 3CL-protease; [3]): < 100 nM

CC(C)C[C@H]1C(=O)N2C[C@]3(C[C@H]2C#N)C(=O)Nc2ccc(cc23)OCCCCN1C(=O)C(=O)NC1(c2ccc(F)cc2F)CC1 [Example 29]
IC50 (SARS-CoV-2 3CL-protease; [3]): < 100 nM

CC(C)C[C@H]1C(=O)N2C[C@]3(C[C@H]2C#N)C(=O)Nc2ccc(cc23)CCCCCN1C(=O)c1cnn(-c2ccccc2C(F)(F)F)c1 [Example 21]
EC50 [1, 2]: < 100 nM
IC50 (SARS-CoV-2 3CL-protease; [3]): < 100 nM

CC(C)C[C@H]1C(=O)N2C[C@]3(C[C@H]2C#N)C(=O)Nc2ccc(cc23)CCCCCN1C(=O)c1cnn(-c2ccc(C(F)(F)F)cc2)c1 [Example 18]
EC50 [1, 2]: < 100 nM
IC50 (SARS-CoV-2 3CL-protease; [3]): < 100 nM

CCCC[C@H]1C(=O)N2C[C@]3(C[C@H]2C#N)C(=O)Nc2ccc(cc23)CCCCCN1C(=O)c1cn(-c2cc(F)c(F)cc2F)nn1 [Example 16]
EC50 [1, 2]: < 100 nM
IC50 (SARS-CoV-2 3CL-protease; [3]): < 100 nM
